In patent US4277479A, “Tetrazolylalkoxycarbostyril derivatives and pharmaceutical compositions containing them” (Otsuka Pharmaceutical Co., Ltd., priority 1978, dated 1981):
Read-outs that look alike come from different tables or passages of the source.

How the values were obtained:
[1] = target: T1, cyclic AMP phosphodiesterase (Oryctolagus cuniculus, UniProt G1ST54); assay: Obstructive action against cyclic AMP phosphodiesterase; assay type: biochemical, rabbit; conditions: 0.4 μmol cyclic AMP, read-out: Phosphodiesterase obstruction rate
T1 construct: the supernatant was collected to use it as a crude enzyme solution; from tissue; host or cells: rabbit platelets (from platelet-rich plasma)
T1 sequence (G1ST54 1-1128): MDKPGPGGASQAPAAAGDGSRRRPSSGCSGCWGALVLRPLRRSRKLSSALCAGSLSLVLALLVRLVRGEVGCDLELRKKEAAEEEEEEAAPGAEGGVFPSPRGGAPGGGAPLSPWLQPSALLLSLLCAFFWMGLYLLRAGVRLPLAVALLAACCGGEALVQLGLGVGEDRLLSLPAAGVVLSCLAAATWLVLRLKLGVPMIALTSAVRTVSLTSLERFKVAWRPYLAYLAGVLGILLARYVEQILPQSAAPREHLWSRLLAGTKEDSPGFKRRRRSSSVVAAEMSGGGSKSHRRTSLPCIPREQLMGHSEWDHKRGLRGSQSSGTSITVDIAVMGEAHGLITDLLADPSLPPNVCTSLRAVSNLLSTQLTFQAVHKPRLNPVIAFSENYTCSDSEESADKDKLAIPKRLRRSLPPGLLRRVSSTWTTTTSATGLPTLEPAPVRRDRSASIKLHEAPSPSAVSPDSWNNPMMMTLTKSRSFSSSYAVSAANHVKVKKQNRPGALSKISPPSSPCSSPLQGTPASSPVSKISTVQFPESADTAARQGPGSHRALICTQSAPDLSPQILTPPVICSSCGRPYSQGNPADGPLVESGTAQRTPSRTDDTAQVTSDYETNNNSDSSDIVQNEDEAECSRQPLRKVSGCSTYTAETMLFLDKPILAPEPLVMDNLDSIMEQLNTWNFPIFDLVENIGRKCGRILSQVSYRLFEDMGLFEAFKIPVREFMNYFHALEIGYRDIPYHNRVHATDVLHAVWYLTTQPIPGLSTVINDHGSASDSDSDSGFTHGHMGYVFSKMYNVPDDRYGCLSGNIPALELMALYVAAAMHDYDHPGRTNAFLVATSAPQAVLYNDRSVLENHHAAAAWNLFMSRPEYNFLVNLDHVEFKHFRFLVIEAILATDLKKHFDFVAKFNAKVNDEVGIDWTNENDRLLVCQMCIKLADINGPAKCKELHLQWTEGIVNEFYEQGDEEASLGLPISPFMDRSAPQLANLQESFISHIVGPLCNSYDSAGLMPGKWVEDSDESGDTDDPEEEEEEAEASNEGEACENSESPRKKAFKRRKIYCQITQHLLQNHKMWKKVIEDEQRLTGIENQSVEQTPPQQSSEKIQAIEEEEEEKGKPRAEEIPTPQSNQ
Description: (Test of obstructive action against cyclic AMP phosphodiesterase)
The obstructive action against cyclic AMP phosphodiesterase was measured according to the activity measuring method described in "Biochimica et Biophysica Acta", Vol. 429, pp. 485-497 (1976) and "Biochemical Medicine", Vol. 10, pp. 301-311 (1974).
That is, for determining the obstructive activity against cyclic AMP phosphodiesterase, 10 ml of a solution obtained by adding 1 mmol of MgCl2 into 50 mmol of tris-hydrochloric acid buffer with pH 7.4 was added to the platelets obtained by further centrifuging the above-said rabbit PRP at 3,000 r.p.m. for 10 minutes, and the suspended platelets were ground by a Teflon potter type homogenizer. This was followed by two times of freezing and thawing treatment and 300-second fracturing with 200 watt supersonic waves. After additional 60-minute centrifugation with 100,000 g, the supernatant was collected to use it as a crude enzyme solution.
10 Milliliters of this crude buffer solution was added to a 1.5×20 cm DEAE-cellulose column which has previously been buffered with 50 mmol of tris-acetate buffer (pH 6.0), followed by washing and elution with 30 ml of 50 mmol tris-acetate buffer, and this buffer solution was subjected to linear gradient elution with 0 to 1 moles of sodium acetate-tris-acetate buffer. The flow rate was 0.5 ml/min, and 5 ml of each fraction was batched out. […] This fraction was used as cyclic AMP phosphodiesterase.
0.1 Milliliter of an aqueous solution of each test compound of a specified concentration was mixed with 40 mmol of tris-hydrochloric acid buffer (pH 8.0, containing 50 μg of cow serum albumin and 4 mmol of MgCl2) containing predetermined 0.4 μmol of cyclic AMP (tritium cyclic AMP), and 0.2 ml of this mixed solution was used as a substrate solution.
0.2 Milliliter of the above-prepared cyclic AMP phosphodiesterase of a predetermined concentration was added to said substrate solution and the mixture was reacted at 30° C. for 20 minutes, producing tritium 5'-AMP from the tritium cyclic AMP.
The reaction system was then immersed in boiling water for 2 minutes to stop the reaction, and then this reaction solution was cooled in ice water and, for converting the produced tritium 5'-AMP into tritium adenosine, the solution was added with 0.05 ml (1 mg/ml) of snake poison as 5'-nucleotidase and reacted at 30° C. for 10 minutes. The whole amount of this reaction solutions was then added to a cation exchange resin (AG 500 W×4, 200-400 meshes, manufactured by Bio-Rad Co., column size: 0.5×1.5 cm), and the produced tritium anodesine alone was allowed to combine, washed with 6 ml of distilled water and eluted with 1.5 ml of 3 N-ammonia water. The whole quantity of the elutant was added with 10 ml of a triton-toluene type scintillator and the produced tritium adenosine was measured by a liquid scintillation counter to determine the phosphodiesterase activity.
In this way, the phosphodiesterase activation value (Vs) of the test compounds of the respective concentrations was determined, and the phosphodiesterase obstruction rate (%) was determined from said activation value (Vs) and control value (Vc) (obtained from water not containing any test compound) from the following formula: [formula]

[2] = system: rabbit platelet (ADP-induced aggregation); assay: Platelet aggregation inhibitory effect, ADP-induced aggregation in rabbit platelet; assay type: cell-based; conditions: Oryctolagus cuniculus; for inhibition at 100 µM / inhibition at 10 µM: read-out: Inhibition effect on ADP-induced aggregation in rabbit platelet; for inhibition at 1 µM: concentration of the test compound solution 10^-6 mole
From the text: (§1) The blood sample used for the test is a 1/9 (by volume) mixture of sodium citrate and whole blood collected from rabbit. Said sample is subjected to 10-minute centrifugal separation at 1,000 r.p.m. to obtain a platelet rich plasma (PRP). The thus obtained PRP is separated, and the remaining blood sample is further subjected to 15-minute centrifugal separation at 3,000 r.p.m. to obtain a platelet poor plasma (PPP).
(§2) The number of platelets in the PRP is counted by the Brecher-Clonkite Method, and the PRP is diluted with the PPP to prepare a PRP sample with platelet concentration of 300,000/mm^3 for the adenosine diphosphate (ADP)-induced aggregation test. There is also prepared a PRP sample with platelet concentration of 450,000/mm^3 for the collagen-induced aggregation test.
(§3) 0.6 Ml of said PRP sample is added into 0.01 ml of a solution of a test compound of a predetermined concentration and the mixture is placed in a 37° C. thermostat for one minute. Then 0.07 ml of an ADP or collagen solution is added to the mixture. Transmittance of this mixture is determined and the change of transmittance is recorded by using the aggregometer at stirrer speed of 1,100 r.p.m. […] ADP is adjusted to a concentration of 7.5×10^-5 M, and the collagen solution is prepared by triturating 100 mg of collagen with 5 ml of said buffer and the supernatant is used as collagen inducer. Adenosine and acetylsalicylic acid are used as controls for the ADP-induced aggregation test and the collagen-induced aggregation test, respectively. The platelet aggregation inhibitory effect is measured in terms of percent inhibition with respect to the aggregation rate of the controls. The aggregation rate is calculated from the following formula: [formula] wherein a: transmittance of PRP
(§4) b: transmittance of PRP containing a test compound and an aggregation inducer
(§5) The compounds tested are as follows.

Acute toxicity test = conditions: mouse, in vivo; male mice, oral administration
Description: The test compounds were administered orally to the mice and LD50 (mg/kg) of the compounds was determined.

[3] = system: rabbit platelet (collagen-induced aggregation); assay: Platelet aggregation inhibitory effect, collagen-induced aggregation in rabbit platelet; assay type: cell-based; conditions: Oryctolagus cuniculus, read-out: Inhibition effect on collagen-induced aggregation in rabbit platelet
From the text: as §1, §2, §3, §4, §5

[4] = concentration of the test compound solution 10^-4 mole
[5] = concentration of the test compound solution 10^-5 mole
[6] = concentration of the test compound solution 10^-6 mole

| Structure (SMILES) | inhibition at 100 µM [2, 4] | inhibition at 100 µM [3, 4] | inhibition at 10 µM [3, 5] | other results |
| --- | --- | --- | --- | --- |
| CC(C)Cn1c(=O)n(C)c(=O)c2[nH]cnc21 [1-Methyl-3-isobutylxanthine, 1-methyl-3-isobutylxanthine, reference compound] | – | – | – | inhibition at 1 µM ([1]; concentration of test compound solution 10^-6 mole): 63.4%; inhibition ([1]; concentration of test compound solution 10^-7 mole): 4.2% |
| CC(C)n1nnnc1CCCOc1ccc2[nH]c(=O)ccc2c1 [Compound 2, 6-[3-(1-Isopropyltetrazol-5-yl)propoxy]carbostyril] | 74.7% | 100% | 58.1% | inhibition at 10 µM [2, 5]: 36.8%; inhibition at 1 µM [2]: 11.9%; LD50 (Acute toxicity test): > 1000 mg/kg; inhibition at 1 µM [3, 6]: 11.8% |
| Cn1c(=O)ccc2cc(OCCCc3nnnn3C3CCCCC3)ccc21 [Compound 8, 1-Methyl-6-[3-(1-cyclohexyltetrazol-5-yl)propoxy]carbostyril] | 87.8% | 91.5% | 43.4% | inhibition at 10 µM [2, 5]: 42.4%; inhibition at 1 µM [2]: 21.3%; LD50 (Acute toxicity test): > 1000 mg/kg; inhibition at 1 µM [3, 6]: 18.6% |
| Cc1cc(=O)[nH]c2ccc(OCCCc3nnnn3C3CCCCC3)cc12 [Compound 10, 4-Methyl-6-[3-(1-cyclohexyltetrazol-5-yl)propoxy]carbostyril] | 100% | 100% | 100% | inhibition at 10 µM [2, 5]: 61.7%; inhibition at 1 µM [2]: 28.1%; LD50 (Acute toxicity test): > 1000 mg/kg; inhibition at 1 µM [3, 6]: 18.2% |
| O=C1CCc2c(cccc2OCCCc2nnnn2C2CCCCC2)N1 [Compound 11, 5-[3-(1-Cyclohexyltetrazol-5-yl)propoxy]-3,4-dihydrocarbostyril] | 90.4% | 98.4% | 42.4% | inhibition at 10 µM [2, 5]: 30.2%; LD50 (Acute toxicity test): > 1000 mg/kg |
| CC(=O)Oc1ccccc1C(=O)O [Compound 17, Aspirin, reference compound] | – | – | – | inhibition at 10 µM [2]: 0%; inhibition at 100 µM [2]: 7%; inhibition at 1 µM [3]: 7%; inhibition at 10 µM [3]: 9%; inhibition at 100 µM [3]: 65% |
| CSc1nnnn1CCCOc1ccc2c(c1)CCC(=O)N2 [Compound 18, 6-[3-(5-Methylthiotetrazol-1-yl)propoxy]-3,4-dihydrocarbostyril, reference compound] | 0% | 67.4% | 13.3% | – |
| CSc1nnn(CCCOc2ccc3c(c2)CCC(=O)N3)n1 [Compound 19, 6-[3-(5-Methylthiotetrazol-2-yl)propoxy]-3,4-dihydrocarbostyril, reference compound] | 2.3% | 73.4% | 1.3% | – |
| O=C1CCc2cc(OCCCn3cnnn3)ccc2N1 [Compound 20, 6-[3-(Tetrazol-1-yl)propoxy]-3,4-dihydrocarbostyril, reference compound] | 4.3% | 77.4% | 0% | – |
| O=C1CCc2c(cccc2OCCN2CCCCC2)N1 [Compound 21, 5-(2-Piperidinoethoxy)-3,4-dihydrocarbostyril, reference compound] | 18% | 25% | – | – |
| O=C1CCc2c(cccc2OCCN2CCOCC2)N1 [Compound 22, 5-(2-Morpholinoethoxy)-3,4-dihydrocarbostyril, reference compound] | 13% | 23% | – | – |
| O=C1CCc2c(cccc2OCCCN2CCCCC2)N1 [Compound 23, 5-(3-Piperidinopropoxy)-3,4-dihydrocarbostyril, reference compound] | 15% | 27% | – | – |
| O=C1CCc2cc(OCCN3CCOCC3)ccc2N1 [Compound 24, 6-(2-Morpholinoethoxy)-3,4-dihydrocarbostyril, reference compound] | 17% | 31% | – | – |
| O=C1CCc2ccc(OCCCN3CCCCC3)cc2N1 [Compound 25, 7-(3-Piperidinopropoxy)-3,4-dihydrocarbostyril, reference compound] | 12% | 18% | – | – |
| CC(COc1cccc2c1NC(=O)CC2)N1CCCCC1 (stereo not drawn) [Compound 26, 8-(2-Piperidinopropoxy)-3,4-dihydrocarbostyril, reference compound] | 14% | 12% | – | – |
